15 molecules from patent US11820773B2, “Tricyclic compounds” (ALIGOS THERAPEUTICS, INC., priority 2020, dated 2023) can be followed below.

This assay relates to HBV. The assay can be described thus: HBV-DNA antiviral assay using HepG2.117 cells (intracellular HBV DNA by qPCR). The class given is cell-based, genotype D HBV. The following applies: Hepatitis B virus, 72 h, HBV DNA inhibition, 3 days incubation, 2% DMSO. The procedure:
The following assay procedure describes the HBV antiviral assay, using HepG2.117 cells, which carry a stably integrated genotype D HBV genome under the control of a Tet-off promoter, and intracellular HBV DNA quantification as endpoint. Cell viability is assessed in parallel by measuring the intracellular ATP content using CellTiter-Glo 2.0 (Promega).
On day 0, HepG2.117 cells (which are maintained in routine cell culture with doxycycline present in the medium at a final concentration of 1 μg/mL) were seeded in 96-well plates (white with clear bottom) at a density of 2.0×10^4 cells/well (0.1 mL/well) in medium without doxycycline to induce pgRNA transcription and subsequent formation of HBV particles. The cells were incubated at 37° C. and 5% CO2.
On day 1, medium was removed from each well, the test articles were diluted in culture medium without doxcycyline and 100 μL was added to cell culture wells (9 concentrations, 4-fold dilution). For each plate, 6 untreated (merely DMSO) wells were included. The final concentration of DMSO in the culture medium was 2%. Each plate was prepared in duplicate (one for HBV DNA extraction, one for CellTiter-Glo 2.0 measurement). The cells were incubated at 37° C. and 5% CO2 for 3 days.
On day 4, cell viability was assessed using CellTiter-Glo 2.0 and cell lysates were prepared for HBV DNA extraction and subsequent quantification by qPCR.
HBV DNA Quantification by qPCR
Medium was removed from each well and 100 μL of 0.33% NP-40 in H2O was added to each well. Plates were sealed, incubated at 4° C. for 5 mins, vortexed extensively and centrifuged briefly. Next, 35 μL of lysate was added to 65 μL QuickExtract DNA Extraction Solution (Epicentre) in a PCR plate for each well. PCR plate was incubated at 65° C. for 6 mins, 98° C. for 2 mins and finally cooled to 4° C. HBV DNA was then quantified by qPCR with HBV-specific primers and probes as specified in Table 1 using the Bio-Rad SSOAdvanced Universal Probes Supermix on a CFX96 machine (Bio-Rad). The PCR cycle program consisted of 95° C. for 3 mins, followed by 40 cycles at 95° C. for 10 sec and 60° C. for 30 sec.
A DNA standard was prepared by dilution of an IDT gBlock corresponding to the amplicon with concentrations ranging from 10^2 to 10^8 copies/input (i.e. per 4 μL) and used to generate a standard curve by plotting Cq values vs. HBV DNA standard concentration. The quantity of HBV DNA in each sample was determined by interpolating from the standard curve.
Cell viability was calculated as follows: % Cell viability=(luminescence value of test sample)/(average luminescence value of 2% DMSO control)×100%. HBV DNA inhibition was calculated as follows: 100−(HBV DNA copy number of test sample)/(average HBV DNA copy number of 2% DMSO control)×100%. No normalization to entecavir was required due to the excellent dynamic window of this assay. The CC50, EC50 and EC90 values were determined by dose-response curves fitted by GraphPad Prism using “log (agonist) vs. response—Variable slope”.

Bounds are passed on as bounds.

`Cc1nnc(-c2ccc(-n3c(=O)c4c(n5ncc(CC(C)C)c35)CN(C(=O)c3ccc(Br)c(Cl)c3)[C@H](C)C4)cc2)[nH]1` (stereo in doubt) [Compound 66a, rac-(11R)-12-(4-bromo-3-chloro-benzoyl)-5-isobutyl-11-methyl-7-[4-(5-methyl-4H-1,2,4-triazol-3-yl)phenyl]-2,3,7,12-tetrazatricyclo[7.4.0.0^2,6]trideca-1(9),3,5-trien-8-one]: the EC50 is less than 50 nM.

In the case of `COP(=O)(OC)OCN(C)C(=O)c1ccc(-n2c(=O)c3c(n4ncc(CC5CC5)c24)CN(C(=O)c2ccc(Br)c(C(F)(F)F)c2)[C@@H](C)C3)cc1` (racemic) [Compound 103, Dimethyl [methyl-[4-[rac-(11S)-12-[4-bromo-3-(trifluoromethyl)benzoyl]-5-(cyclopropylmethyl)-11-methyl-8-oxo-2,3,7,12-tetrazatricyclo[7.4.0.0^2,6]trideca-1(9),3,5-trien-7-yl]benzoyl]amino]methyl Phosphate], the EC50 was more than 5000 nM.

As to `CNC(=O)c1ccc(-n2c(=O)c3c(n4ncc(CC(C)C)c24)CN(C(=O)c2ccc(Br)c(C(F)(F)F)c2)[C@H](C)C3)cc1` (stereo in doubt) [Compound 50a, N-methyl-4-[rac-(11R)-12-[4-bromo-3-(trifluoromethyl)benzoyl]-5-isobutyl-11-methyl-8-oxo-2,3,7,12-tetrazatricyclo[7.4.0.0^2,6]trideca-1(9),3,5-trien-7-yl]benzamide], the EC50 was less than 50 nM.

In turn, `CC[C@@H]1Cc2c(n3ncc(Cc4ccccc4)c3n(-c3ccc4c(NC)n[nH]c4c3)c2=O)CN1C(=O)c1ccc(Br)c(C(F)(F)F)c1` (stereo in doubt) [Compound 84a, rac-(11R)-5-benzyl-12-[4-bromo-3-(trifluoromethyl)benzoyl]-11-ethyl-7-[3-(methylamino)-1H-indazol-6-yl]-2,3,7,12-tetrazatricyclo[7.4.0.0^2,6]trideca-1(9),3,5-trien-8-one] gave an EC50 of less than 50 nM.

As for `CNC(=O)c1ccc(-n2c(=O)c3c(n4ncc(Cc5ccccc5)c24)CN(C(=O)c2ccc(Br)c(C(F)(F)F)c2)[C@H](C2CC2)C3)cc1` (stereo in doubt) [Compound 104b, N-methyl-4-[rac-(11S)-5-benzyl-12-[4-bromo-3-(trifluoromethyl)benzoyl]-11-cyclopropyl-8-oxo-2,3,7,12-tetrazatricyclo[7.4.0.0^2,6]trideca-1 (9),3,5-trien-7-yl]benzamide], the EC50 is less than 50 nM.

The molecule `CC(C)Cc1cnn2c3c(c(=O)n(-c4ccc(-c5nncn5C)cc4)c12)C[C@H](C)N(C(=O)c1ccc(Br)c(Cl)c1)C3` (stereo in doubt) [Compound 68b, rac-(11S)-12-(4-bromo-3-chloro-benzoyl)-5-isobutyl-11-methyl-7-[4-(4-methyl-1,2,4-triazol-3-yl)phenyl]-2,3,7,12-tetrazatricyclo[7.4.0.0^2,6]trideca-1(9),3,5-trien-8-one] came in with an EC50 of 50 to 500 nM.

Turning to `CNC(=O)c1cnc(-n2c(=O)c3c(n4ncc(CC(C)C)c24)CN(C(=O)c2ccc(Br)c(C(F)(F)F)c2)[C@@H](C)C3)cn1` (stereo in doubt) [Compound 89b, [rac-(11S)-12-[4-bromo-3-(trifluoromethyl)benzoyl]-5-isobutyl-11-methyl-8-oxo-2,3,7,12-tetrazatricyclo[7.4.0.0^2,6]trideca-1(9),3,5-trien-7-yl]pyrazine-2-carboxamide], the EC50 was 50 to 500 nM.

Consider `Cn1nnnc1-c1ccc(-n2c(=O)c3c(n4ncc(Cc5ccccc5)c24)CN(C(=O)c2ccc(Br)c(Cl)c2)CC3)cc1` [Compound 8, 5-benzyl-12-(4-bromo-3-chloro-benzoyl)-7-[4-(1-methyltetrazol-5-yl)phenyl]-2,3,7,12-tetrazatricyclo[7.4.0.0^2,6]trideca-1(9),3,5-trien-8-one], for which the EC50 is less than 50 nM.

Consider `CNc1nsc2cc(-n3c(=O)c4c(n5ncc(Cc6ccccc6)c35)CN(C(=O)c3ccc(Br)c(Cl)c3)CC4)ccc12` [Compound 5, 5-benzyl-12-(4-bromo-3-chloro-benzoyl)-7-[3-(methylamino)-1,2-benzothiazol-6-yl]-2,3,7,12-tetrazatricyclo[7.4.0.0^2,6]trideca-1(9),3,5-trien-8-one], for which the EC50 is less than 50 nM.

On to `Cc1nnc(-c2ccc(-n3c(=O)c4c(n5ncc(CC(C)C)c35)CN(C(=O)c3ccc(Br)c(C(F)(F)F)c3)[C@H](C)C4)cc2)[nH]1` (stereo in doubt) [Compound 59a, rac-(11R)-12-[4-bromo-3-(trifluoromethyl)benzoyl]-5-isobutyl-11-methyl-7-[4-(5-methyl-4H-1,2,4-triazol-3-yl)phenyl]-2,3,7,12-tetrazatricyclo[7.4.0.0^2,6]trideca-1(9),3,5-trien-8-one], for which the EC50 is less than 50 nM.

In turn, `C[C@H]1Cc2c(n3ncc(Cc4ccccc4)c3n(-c3ccc(-n4nnnc4C(F)(F)F)cc3)c2=O)CN1C(=O)c1ccc(Br)c(C(F)(F)F)c1` (stereo in doubt) [Compound 92b, rac-(11S)-5-benzyl-12-[4-bromo-3-(trifluoromethyl)benzoyl]-11-methyl-7-[4-[5-(trifluoromethyl)tetrazol-1-yl]phenyl]-2,3,7,12-tetrazatricyclo[7.4.0.0^2,6]trideca-1(9),3,5-trien-8-one] yielded an EC50 of more than 5000 nM.

As to `C[C@@H]1Cc2c(n3ncc(Cc4ccccc4)c3n(-c3ccc(-c4nn(C)c(=O)[nH]4)cc3)c2=O)CN1C(=O)c1ccc(Br)c(C(F)(F)F)c1` (stereo in doubt) [Compound 82a, rac-(11R)-5-benzyl-12-[4-bromo-3-(trifluoromethyl)benzoyl]-11-methyl-7-[4-(1-methyl-5-oxo-4H-1,2,4-triazol-3-yl)phenyl]-2,3,7,12-tetrazatricyclo[7.4.0.0^2,6]trideca-1(9),3,5-trien-8-one], the EC50 was less than 50 nM.

Molecule `CNc1n[nH]c2cc(-n3c(=O)c4c(n5ncc(CC(C)C)c35)CN(C(=O)c3ccc(Br)c(Cl)c3)[C@H](C)C4)ccc12` (stereo in doubt) [Compound 57a, rac-(11R)-12-(4-bromo-3-chloro-benzoyl)-5-isobutyl-11-methyl-7-[3-(methylamino)-1H-indazol-6-yl]-2,3,7,12-tetrazatricyclo[7.4.0.0^2,6]trideca-1(9),3,5-trien-8-one] returned an EC50 of less than 50 nM.

On to `CC(C)Cc1cnn2c3c(c(=O)n(-c4ccc(-c5cnnn5C)cc4)c12)C[C@H](C)N(C(=O)c1ccc(Br)c(C(F)(F)F)c1)C3` (stereo in doubt) [Compound 102b, rac-(11S)-12-[4-bromo-3-(trifluoromethyl)benzoyl]-5-isobutyl-11-methyl-7-[4-(3-methyltriazol-4-yl)phenyl]-2,3,7,12-tetrazatricyclo[7.4.0.0^2,6]trideca-1(9),3,5-trien-8-one], for which the EC50 was in the range of 50 to 500 nM.

Turning to `Cc1nnc(-c2ccc(-n3c(=O)c4c(n5ncc(CC(C)C)c35)CN(C(=O)c3ccc(Br)c(Cl)c3)[C@@H](C)C4)cc2)[nH]1` (stereo in doubt) [Compound 66b, rac-(11S)-12-(4-bromo-3-chloro-benzoyl)-5-isobutyl-11-methyl-7-[4-(5-methyl-4H-1,2,4-triazol-3-yl)phenyl]-2,3,7,12-tetrazatricyclo[7.4.0.0^2,6]trideca-1(9),3,5-trien-8-one], the EC50 lay within 50 to 500 nM.
